Data reported in patent US20230416329A1, “A PEPTIDE WITH DISULFIDE BONDS AND INHIBITORY ACTIVITY AGAINST SERINE PROTEASES, DERIVED HYBRID PEPTIDES THEREOF, AND USES THEREOF” (INSTITUTE OF MATERIA MEDICA , CHINESE ACADEMY OF MEDICAL …, priority 2020, published 2023).

Key:
[1] = Stability of GLP-1 and its analogues in human serum; conditions: 25% (v/v) human serum; for Remaining peak area (%)/human serum: 0.0 h, peptide 0.03 mM, 37° C.; for remaining at 0.5 h, 0.03 mM / remaining at 2 h, 0.03 mM / remaining at 4 h, 0.03 mM / remaining at 8 h, 0.03 mM / remaining at 12 h, 0.03 mM: human, pH 7
chymotrypsin = chymotrypsin (Bos taurus, UniProt P00766); assay: in vitro; conditions: isolated enzyme chymotrypsin, pH 7.8, Remaining peak area (%)/chymotrypsin
Outline: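 RP-HPLC peak area tracked intact peptide after 37 °C digestion with chymotrypsin (0.05 μg/μL solution, 5 min preincubation). Samples were withdrawn at 1.5-60.0 min and stopped with 10% TFA.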

DPP-IV = DPP-IV (Homo sapiens, UniProt P27487); assay: Tolerance of GLP-1 and its analogues to DPP-IV (RP-HPLC remaining peak area); assay type: in vitro ADME; conditions: peptide 25 μM, DPP-IV 0.5 ng/μL, 37° C.; for Remaining peak area (%)/DPP-IV: 0.0 h; for remaining at 0.5 h, 25 μM / remaining at 2 h, 25 μM / remaining at 4 h, 25 μM / remaining at 8 h, 25 μM / remaining at 12 h, 25 μM: isolated DPP-IV enzyme in buffer, pH 8
DPP-IV, sequence (P27487 whole entry, species assumed): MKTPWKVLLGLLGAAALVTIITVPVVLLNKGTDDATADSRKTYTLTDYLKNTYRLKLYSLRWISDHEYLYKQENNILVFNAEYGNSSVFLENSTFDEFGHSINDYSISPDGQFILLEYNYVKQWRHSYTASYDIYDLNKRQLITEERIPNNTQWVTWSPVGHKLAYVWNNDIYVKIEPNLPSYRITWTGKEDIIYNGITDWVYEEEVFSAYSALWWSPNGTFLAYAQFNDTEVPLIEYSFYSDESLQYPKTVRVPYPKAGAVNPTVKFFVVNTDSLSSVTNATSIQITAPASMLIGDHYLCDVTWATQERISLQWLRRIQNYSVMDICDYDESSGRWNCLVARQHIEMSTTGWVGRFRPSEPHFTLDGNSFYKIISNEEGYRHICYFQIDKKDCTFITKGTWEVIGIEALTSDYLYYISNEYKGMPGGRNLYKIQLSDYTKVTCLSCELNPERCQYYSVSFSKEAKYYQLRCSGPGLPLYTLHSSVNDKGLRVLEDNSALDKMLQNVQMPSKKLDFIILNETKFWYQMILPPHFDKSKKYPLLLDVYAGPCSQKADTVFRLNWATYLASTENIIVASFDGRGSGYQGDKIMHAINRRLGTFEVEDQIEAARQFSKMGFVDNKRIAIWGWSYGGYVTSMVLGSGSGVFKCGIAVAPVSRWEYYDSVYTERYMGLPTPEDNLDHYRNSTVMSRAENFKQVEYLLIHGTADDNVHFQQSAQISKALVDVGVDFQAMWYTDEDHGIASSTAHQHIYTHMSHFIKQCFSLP
Experimental: (§1) Mix by centrifugation at 8000 rpm for 30 seconds.
(2) Arrange a certain volume of 0.005 μg/μL DPP-IV solution in another sterile EP.

NEP24.11 = NEP24.11 (Homo sapiens, UniProt P08473); assay: Tolerance of GLP-1 and its analogues to NEP24.11 (RP-HPLC remaining peak area); assay type: in vitro ADME; conditions: peptide 30 μM, NEP24.11 1.0 ng/μL; for Remaining peak area (%)/NEP24.11: 0.0 h; for Remaining peak area (%)/NEP24.11 / remaining at 0.5 h, 30 μM / remaining at 2 h, 30 μM / remaining at 4 h, 30 μM / remaining at 8 h, 30 μM: 37° C.; for remaining at 0.5 h, 30 μM / remaining at 2 h, 30 μM / remaining at 4 h, 30 μM / remaining at 8 h, 30 μM: isolated NEP24.11 enzyme in buffer; for remaining at 0.5 h, 30 μM: pH 7.4, 0.5 h; for remaining at 2 h, 30 μM: pH 7.4, 2.0 h; for remaining at 4 h, 30 μM: pH 7.4, 4.0 h; for remaining at 8 h, 30 μM: pH 7.4, 8.0 h, read-out: Remaining peak area (%)/NEP24.11
NEP24.11, sequence (P08473 whole entry): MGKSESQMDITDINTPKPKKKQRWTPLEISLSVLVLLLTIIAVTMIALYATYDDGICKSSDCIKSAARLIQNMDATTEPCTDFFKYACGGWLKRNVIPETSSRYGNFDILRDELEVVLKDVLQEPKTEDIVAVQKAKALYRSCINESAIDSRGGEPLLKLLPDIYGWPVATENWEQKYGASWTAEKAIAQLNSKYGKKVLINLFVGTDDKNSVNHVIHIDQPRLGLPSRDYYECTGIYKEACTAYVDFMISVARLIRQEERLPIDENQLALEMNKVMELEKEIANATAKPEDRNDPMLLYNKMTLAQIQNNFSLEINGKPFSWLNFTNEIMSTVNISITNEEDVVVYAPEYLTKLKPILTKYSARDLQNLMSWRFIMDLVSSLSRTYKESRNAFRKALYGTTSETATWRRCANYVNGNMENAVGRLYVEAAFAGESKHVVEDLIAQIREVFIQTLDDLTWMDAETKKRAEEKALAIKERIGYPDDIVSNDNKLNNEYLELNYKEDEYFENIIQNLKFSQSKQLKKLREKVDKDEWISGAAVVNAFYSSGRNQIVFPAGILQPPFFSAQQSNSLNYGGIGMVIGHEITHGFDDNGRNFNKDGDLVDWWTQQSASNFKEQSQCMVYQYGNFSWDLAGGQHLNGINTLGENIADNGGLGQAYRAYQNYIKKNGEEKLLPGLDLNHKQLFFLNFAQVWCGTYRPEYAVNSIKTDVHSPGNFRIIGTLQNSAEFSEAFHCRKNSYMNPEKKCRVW
Experimental: as §1
Arrange a certain volume of 0.04 μg/μL NEP24.11 enzyme solution in another sterile EP.

trypsin = molecular target: T1, trypsin (Bos taurus, UniProt P00760); assay: in vitro; conditions: isolated enzyme trypsin, pH 7.8
T1 sequence (P00760 24-246): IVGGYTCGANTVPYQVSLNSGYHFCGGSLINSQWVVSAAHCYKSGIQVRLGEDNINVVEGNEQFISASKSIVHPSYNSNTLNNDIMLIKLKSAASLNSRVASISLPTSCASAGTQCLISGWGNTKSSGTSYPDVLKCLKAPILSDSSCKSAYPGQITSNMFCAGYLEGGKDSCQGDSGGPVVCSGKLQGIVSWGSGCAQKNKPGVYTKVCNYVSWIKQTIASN
Outline: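 Remaining RP-HPLC peak area tracks undigested peptide over time. Samples were quenched with 10% TFA at time points between 1.5 and 60 min during 37 °C digestion. Trypsin was added from a 0.05 μg/μL solution after 5 min of thermal equilibration.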

| remaining at 0.025 h, 60 μM (chymotrypsin) | remaining at 0.075 h, 60 μM (chymotrypsin) | remaining at 0.1 h, 60 μM (chymotrypsin) | remaining at 0.15 h, 60 μM (chymotrypsin) | remaining at 0.025 h, 60 μM (trypsin) | remaining at 0.05 h, 60 μM (trypsin) | remaining at 0.075 h, 60 μM (trypsin) | remaining at 0.1 h, 60 μM (trypsin) | remaining at 0.15 h, 60 μM (trypsin) | SMILES | Remaining peak area (%)/DPP-IV (DPP-IV) | remaining at 0.5 h, 25 μM (DPP-IV) | remaining at 2 h, 25 μM (DPP-IV) | remaining at 4 h, 25 μM (DPP-IV) | remaining at 8 h, 25 μM (DPP-IV) | remaining at 12 h, 25 μM (DPP-IV) | Remaining peak area (%)/NEP24.11 (NEP24.11) | remaining at 0.5 h, 30 μM (NEP24.11) | remaining at 2 h, 30 μM (NEP24.11) | remaining at 4 h, 30 μM (NEP24.11) | remaining at 8 h, 30 μM (NEP24.11) | further results |
| --- | --- | --- | --- | --- | --- | --- | --- | --- | --- | --- | --- | --- | --- | --- | --- | --- | --- | --- | --- | --- | --- |
| 68.7 ± 1.6% | 57.4 ± 2.7% | 53.1 ± 0.5% | 49.8 ± 2.8% | 97.3 ± 8.8% | 96.6 ± 2% | 90.4 ± 2.4% | 90.3 ± 2.5% | 89.7 ± 3.4% | CC[C@H](C)[C@H](NC(=O)[C@H](Cc1ccccc1)NC(=O)[C@H](CCC(=O)O)NC(=O)[C@H](CCCCN)NC(=O)[C@H](C)NC(=O)[C@H](C)NC(=O)[C@H](CCC(N)=O)NC(=O)CNC(=O)[C@H](CCC(=O)O)NC(=O)[C@H](CC(C)C)NC(=O)[C@H](Cc1ccc(O)cc1)NC(=O)[C@H](CO)NC(=O)[C@H](CO)NC(=O)[C@@H](NC(=O)[C@H](CC(=O)O)NC(=O)[C@H](CO)NC(=O)[C@@H](NC(=O)[C@H](Cc1ccccc1)NC(=O)[C@@H](NC(=O)CNC(=O)[C@H](CCC(=O)O)NC(=O)[C@H](C)NC(=O)[C@H](Cc1c[nH]cn1)NC(=O)CNC(=O)CNC(=O)[C@@H](NC(=O)[C@@H]1CCCN1C(=O)[C@@H](NC(=O)CNC(=O)CNC(=O)[C@@H]1CCCN1C(=O)[C@H](Cc1ccccc1)NC(=O)[C@@H]1CSSC[C@H](NC(=O)[C@H](CCCNC(=N)N)NC(=O)CN)C(=O)N[C@@H]([C@@H](C)O)C(=O)N[C@@H](CCCCN)C(=O)N[C@@H](CO)C(=O)N[C@@H]([C@@H](C)CC)C(=O)N2CCC[C@H]2C(=O)N2CCC[C@H]2C(=O)N[C@@H]([C@@H](C)CC)C(=O)N1)[C@@H](C)CC)[C@@H](C)CC)[C@@H](C)O)[C@@H](C)O)C(C)C)C(=O)N[C@@H](C)C(=O)N[C@@H](Cc1c[nH]c2ccccc12)C(=O)N[C@@H](CC(C)C)C(=O)N[C@H](C(=O)N[C@@H](CCCCN)C(=O)NCC(=O)N[C@@H](CCCNC(=N)N)C(=O)NCC(=O)NCC(=O)N[C@@H](CCCCN)C(=O)O)C(C)C [BT1-D-GLP-1] | 100.0 ± 0.0% | 72.3 ± 2.4% | 75.3 ± 1.5% | 72.6 ± 2% | 82 ± 3.2% | 82.5 ± 4.9% | 100.0 ± 0.0% | 88.2 ± 2.4% | 85.2 ± 0.5% | 79.1 ± 3.2% | 74 ± 1.3% | Remaining peak area (%)/human serum [1]: 100.0 ± 0.0%; serum stability (in words) [1]: good serum stability; remaining at 0.5 h, 0.03 mM [1]: 68.9 ± 7.1%; remaining at 2 h, 0.03 mM [1]: 95.1 ± 7.5%; remaining at 4 h, 0.03 mM [1]: 89.4 ± 7.9%; remaining at 8 h, 0.03 mM [1]: 54.8 ± 4.1%; remaining at 12 h, 0.03 mM [1]: 49.7 ± 2.5%; remaining at 0.05 h, 60 μM (chymotrypsin): 61.9 ± 1.5%; remaining at 0.25 h, 60 μM (trypsin): 87.3 ± 2.6%; remaining at 0.5 h, 60 μM (trypsin): 88.6 ± 4.4%; remaining at 1 h, 60 μM (trypsin): 87.7 ± 6.2% |
| 54.9 ± 6.6% | 28.7 ± 2.4% | 19.2 ± 1.3% | 9 ± 0.9% | 76.6 ± 3% | 76.7 ± 9.1% | 77 ± 2.4% | 79.2 ± 3.1% | 80.2 ± 1% | CC[C@H](C)[C@H](NC(=O)[C@H](Cc1ccccc1)NC(=O)[C@H](CCC(=O)O)NC(=O)[C@H](CCCCN)NC(=O)[C@H](C)NC(=O)[C@H](C)NC(=O)[C@H](CCC(N)=O)NC(=O)CNC(=O)[C@H](CCC(=O)O)NC(=O)[C@H](CC(C)C)NC(=O)[C@H](Cc1ccc(O)cc1)NC(=O)[C@H](CO)NC(=O)[C@H](CO)NC(=O)[C@@H](NC(=O)[C@H](CC(=O)O)NC(=O)[C@H](CO)NC(=O)[C@@H](NC(=O)[C@H](Cc1ccccc1)NC(=O)[C@@H](NC(=O)CNC(=O)[C@H](CCC(=O)O)NC(=O)[C@H](C)NC(=O)[C@H](Cc1c[nH]cn1)NC(=O)CNC(=O)CNC(=O)[C@@H](NC(=O)[C@@H]1CCCN1C(=O)[C@@H](NC(=O)CNC(=O)CNC(=O)[C@H](Cc1ccccc1)NC(=O)[C@@H]1CSSC[C@H](N)C(=O)NCC(=O)N[C@@H](CCCNC(=N)N)C(=O)N[C@@H](C)C(=O)N[C@@H]([C@@H](C)O)C(=O)N[C@@H](CCCCN)C(=O)N[C@@H](CO)C(=O)N[C@@H]([C@@H](C)CC)C(=O)N2CCC[C@H]2C(=O)N2CCC[C@H]2C(=O)N[C@@H]([C@@H](C)CC)C(=O)N1)[C@@H](C)CC)[C@@H](C)CC)[C@@H](C)O)[C@@H](C)O)C(C)C)C(=O)N[C@@H](C)C(=O)N[C@@H](Cc1c[nH]c2ccccc12)C(=O)N[C@@H](CC(C)C)C(=O)N[C@H](C(=O)N[C@@H](CCCCN)C(=O)NCC(=O)N[C@@H](CCCNC(=N)N)C(=O)NCC(=O)NCC(=O)N[C@@H](CCCCN)C(=O)O)C(C)C [BT9-D-GLP-1] | 100.0 ± 0.0% | 81.1 ± 1% | 77.9 ± 2.9% | 79.1 ± 1.3% | 78.8 ± 0.6% | 72.4 ± 1.9% | 100.0 ± 0.0% | 79.8 ± 3.5% | 60.2 ± 1.8% | 56.1 ± 3.4% | 48.4 ± 1.4% | Remaining peak area (%)/human serum [1]: 100.0 ± 0.0%; serum stability (in words) [1]: good serum stability; remaining at 0.5 h, 0.03 mM [1]: 65.6 ± 14.7%; remaining at 2 h, 0.03 mM [1]: 38.5 ± 13.3%; remaining at 4 h, 0.03 mM [1]: 28%; remaining at 8 h, 0.03 mM [1]: 13.7%; remaining at 12 h, 0.03 mM [1]: 19.6 ± 1.2%; remaining at 0.25 h, 60 μM (trypsin): 79.1 ± 2.2%; remaining at 0.5 h, 60 μM (trypsin): 75.8 ± 3.8%; remaining at 1 h, 60 μM (trypsin): 77.7 ± 0.5% |
| 65.8 ± 2.6% | 66.2 ± 1.9% | 60.9 ± 0.8% | 45.8 ± 5.4% | 16.9 ± 1.6% | 3.7 ± 5.3% | 1.2 ± 1.7% | 0% | 0% | CC[C@H](C)[C@H](NC(=O)[C@H](Cc1ccccc1)NC(=O)[C@H](CCC(=O)O)NC(=O)[C@H](CCCCN)NC(=O)[C@H](C)NC(=O)[C@H](C)NC(=O)[C@H](CCC(N)=O)NC(=O)CNC(=O)[C@H](CCC(=O)O)NC(=O)[C@H](CC(C)C)NC(=O)[C@H](Cc1ccc(O)cc1)NC(=O)[C@H](CO)NC(=O)[C@H](CO)NC(=O)[C@@H](NC(=O)[C@H](CC(=O)O)NC(=O)[C@H](CO)NC(=O)[C@@H](NC(=O)[C@H](Cc1ccccc1)NC(=O)[C@@H](NC(=O)CNC(=O)[C@H](CCC(=O)O)NC(=O)[C@H](C)NC(=O)[C@H](Cc1c[nH]cn1)NC(=O)CNC(=O)CNC(=O)[C@H](CCCNC(=N)N)NC(=O)[C@H](CO)NC(=O)[C@H](Cc1ccccc1)NC(=O)[C@H](CCCNC(=N)N)NC(=O)[C@H](CCC(N)=O)NC(=O)CNC(=O)CN)[C@@H](C)O)[C@@H](C)O)C(C)C)C(=O)N[C@@H](C)C(=O)N[C@@H](Cc1c[nH]c2ccccc12)C(=O)N[C@@H](CC(C)C)C(=O)N[C@H](C(=O)N[C@@H](CCCCN)C(=O)NCC(=O)N[C@@H](CCCNC(=N)N)C(=O)NCC(=O)NCC(=O)N[C@@H](CCCCN)C(=O)O)C(C)C [N-GLP-1] | 100.0 ± 0.0% | 73.9 ± 5% | 76.9 ± 3% | 79.6 ± 2.3% | 74.9 ± 5.3% | 74.6 ± 10.1% | 100.0 ± 0.0% | 83.9 ± 2.8% | 54.9 ± 13.6% | 51 ± 6.5% | 56.4 ± 15.8% | remaining at 0.05 h, 60 μM (chymotrypsin): 69.3 ± 4%; remaining amount after NEP24.11 hydrolysis (NEP24.11; 8 hours): about 56.4% |
